The values below come from US20110003751A1, “Novel Immunoregulatory Peptides, Compositions and Uses Thereof” (priority 2007, published 2011).

The experiment concerns CFU-S regeneration in the bone marrow of 1-Gy irradiated mice. Put plainly: Stimulation of CFU-S regeneration in bone marrow of 1-Gy irradiated mice (spleen colony count). The experiment is classed as in vivo. On the procedure: Test animals were irradiated with ^60Co gamma-rays at a dose rate of 0.8 Gy per min. Bone marrow recipients were irradiated with a dose of 8 Gy; donors were irradiated with a dose of […]. The suspension of bone marrow cells of intact animals was irradiated with 1 Gy, 5-10 min prior to injection to lethally irradiated recipients.
Stimulation of CFU-S regeneration in the bone marrow of 1-Gy irradiated mice was studied with different routes of administration of the peptides.
For this purpose, at least 5 mice from each group were killed and their bone marrow was obtained. Cell suspension was prepared and injected to lethally irradiated mice. After 9 days, spleen colonies were counted to determine the CFU-S content in 1-Gy irradiated donors who received the peptide.

Setting [1] is: intraperitoneally, 100 ug/kg, 30 min after injection of bone marrow suspension, average of two tests.
Setting [2] is: per os (oral gavage), 100 ug/kg, 30 min after injection of bone marrow suspension, average of two tests.

Turning to H-L-γ-Glu-D-Trp-L-Ile-OH, the Activity % runs as follows: (intraperitoneally, 100 ug/kg) 61%; (per os, 100 ug/kg) 66%. Also, the Stimulation index runs as follows: (intraperitoneally, 100 ug/kg) 0.6; (per os, 100 ug/kg) 0.7. Further, the Colony count is recorded as 6.2 ± 0.5 under setting [1] and 6.8 ± 0.5 under setting [2].
Consider “H-L-Trp-L-Glu-L-Ile-OH [reference compound]”, for which the Activity % was found to be 79% (intraperitoneally, 100 ug/kg) and 0% (per os, 100 ug/kg). In addition, the Stimulation index was 0.8 (intraperitoneally, 100 ug/kg) and 0 (per os, 100 ug/kg). Moreover, the Colony count under setting [1] is recorded as 8.1 ± 1.0 and the Colony count under setting [2] is 5.9 ± 0.8.
H-L-γ-Glu-L-Trp-L-Ile-OH: the Activity % runs as follows: (intraperitoneally, 100 ug/kg) 73%; (per os, 100 ug/kg) 75%. The same substance gave a Stimulation index (intraperitoneally, 100 ug/kg) of 0.7 and a Stimulation index (per os, 100 ug/kg) of 0.7. For the same substance, the Colony count by setting is: under setting [1], 7.5 ± 0.5; under setting [2], 7.7 ± 0.6.
Take “H-L-Ile-D-Glu-D-Trp-OH [reference compound]”: the Colony count under setting [2] was found to be 5.8 ± 0.3. Where the note is “per os, 100 ug/kg”, the Activity % worked out at 0% and the Stimulation index amounted to 0.
Take H-L-Ile-γ-Glu-L-Trp-OH: the “% stimulation” value (IP, 10 ug/kg) amounted to 64%; the “% stimulation” value (IP, 100 ug/kg (Table 4)) is on record as 69%; the “% stimulation” value (IP, 1000 ug/kg) came out at 87%; the “% stimulation” value (per/os, 10 ug/kg) is listed as 0%; the “% stimulation” value (per/os, 100 ug/kg (Table 4)) worked out at 70%; the “% stimulation” value (per/os, 1000 ug/kg) is given as 90%. Also, the Colony count reads like this: (IP, 10 ug/kg) 7.6 ± 0.7; (IP, 100 ug/kg (Table 4)) 8.2 ± 00.4; (IP, 1000 ug/kg) 10.4 ± 00.6; under setting [1], 8.6 ± 0.7; under setting [2], 8.6 ± 0.7; (per/os, 10 ug/kg) 6.9 ± 0.7. For the same substance, the Colony count is, setting by setting: (per/os, 100 ug/kg (Table 4)) 8.3 ± 0.4; (per/os, 1000 ug/kg) 10.7 ± 00.8. Also, the Activity % (intraperitoneally, 100 ug/kg) was 84% and the Activity % (per os, 100 ug/kg) stood at 83%. In addition, the Stimulation index is, setting by setting: (intraperitoneally, 100 ug/kg) 0.8; (per os, 100 ug/kg) 0.8.
With “H-L-Leu-L-Glu-L-Trp-OH [reference compound]”, the Activity % came out at 74% (intraperitoneally, 100 ug/kg) and 0% (per os, 100 ug/kg). For the same substance, the Stimulation index runs as follows: (intraperitoneally, 100 ug/kg) 0.7; (per os, 100 ug/kg) 0. The Colony count was found to be 7.6 ± 0.7 under setting [1] and 6.2 ± 0.3 under setting [2].
As for H-L-Leu-L-γ-Glu-L-Trp-OH, the Activity % by setting is: (intraperitoneally, 100 ug/kg) 69%; (per os, 100 ug/kg) 67%. The Stimulation index is, setting by setting: (intraperitoneally, 100 ug/kg) 0.7; (per os, 100 ug/kg) 0.7. Further, the Colony count is 6.9 ± 0.6 under setting [1] and 6.7 ± 0.7 under setting [2].
Regarding “H-L-Ile-L-Glu-L-Trp-OH [reference compound]”, the “% stimulation” value was determined as 82% (IP, 10 ug/kg); 81% (IP, 100 ug/kg (Table 4)); 100% (IP, 1000 ug/kg); 0% (per/os, 100 ug/kg (Table 4)); 0% (per/os, 1000 ug/kg). Besides, the Colony count by setting is: (IP, 10 ug/kg) 9.7 ± 0.4; (IP, 100 ug/kg (Table 4)) 9.6 ± 0.7; (IP, 1000 ug/kg) 11.8 ± 00.9; under setting [1], 8.2 ± 0.5; under setting [2], 5.6 ± 0.5; (per/os, 100 ug/kg (Table 4)) 6.7 ± 0.5. The substance further returned a Colony count (per/os, 1000 ug/kg) of 6.1 ± 00.3. Besides, the Activity % (intraperitoneally, 100 ug/kg) is 80% and the Activity % (per os, 100 ug/kg) worked out at 0%. Further, the Stimulation index (intraperitoneally, 100 ug/kg) is recorded as 0.8 and the Stimulation index (per os, 100 ug/kg) stood at 0.
